Results taken from US20180280397A1, “RATIONAL COMBINATION THERAPY FOR THE TREATMENT OF CANCER” (Memorial Sloan Kettering Cancer Center, priority 2015, published 2018).
“Also recorded” adds a separate entry of the source.

What was measured:
[1] = test system: HER2+ tumors; conditions: patients with progressive disease after trastuzumab therapy; cited from earlier work
[2] = test system: BJAB Burkitt lymphoma cells; experiment: MTS viability assay, DOX followed by PU-H71; assay type: cell-based; conditions: Homo sapiens, 24 h
Experimental: BJAB Burkitt lymphoma cells were exposed to serial dilutions of DOX for 24 h prior to addition of 500 nM PU-H71. Viability was measured 24 h later using standard MTS assay. Sextuplicate data points were averaged and normalized against untreated (DOX alone) or PU-H71-treated (DOX followed by PU-H71) controls. Data is presented as mean±SD.

[3] = test system: SUDHL4 DLBCL cells; experiment: Cell cycle analysis and caspase-3 activation by flow cytometry; assay type: cell-based
Experimental: To further establish the potency of a combination of a proteotoxic agent and an Hsp90 inhibitor, in vitro assays were performed on lymphoma cells treated with Doxorubicin (DOX). DOX is a topoisomerase inhibitor that intercalates into DNA to induce DNA damage and oxidative stress. The interaction of DOX and PU-H71 was evaluated using standard criteria for synergy, the median effect/Combination Index (CI) method. A dose-response matrix was used as a means to systematically test multiple ratios of DOX:PU-H71 for interaction in sequential or simultaneous schedules of exposure. […] The effect of each drug and their combination on cell cycle and apoptosis in lymphoma cells with low to medium epichaperome levels, such as the SUDHL4 DLBCL cells was evaluated (FIG. 18c).
SUDHL4 DLBCL cells were exposed to PU-H71 and DOX or combinations in different schedules as indicated. Caspase-3 activation was measured by flow cytometry using PE-conjugated anti-active Caspase-3 antibody (FIG. 18C). Cell cycle analysis was performed in parallel and is shown in the inset at top left of each scatterplot. Frequency of hypodiploid population is indicated.

[4] = test system: cancer cell lines; experiment: Cell viability by Annexin V staining in type 1 and type 2 cancer cells; assay type: cell-based; conditions: for apoptotic sensitivity, type 1 tumors / apoptotic sensitivity, type 2 tumors: Annexin V staining
Experimental: (FIG. 3c). Cells were treated with 1 μM PU-H71-FITC. At 4 h post treatment, cells were washed twice with FACS buffer. To measure PU-H71-FITC binding in live cells, cells were stained with 7-AAD in FACS buffer at room temperature for 10 min, and analyzed by flow cytometry (BD Biosciences). Cell viability was determined using Annexin v staining. […]

[5] = test system: HSP90 in the epichaperome complex; experiment: PU-H71-beads depletion of HSP90 species from cell lysates, isoelectric focusing; assay type: binding
Excerpt: The supernatant was applied to native gel separation followed by immunoblotting with HSP90 and other epichaperome complex components (left, example for MDAMB468) or nanopro isoelectric focusing and immunoblotting ([…], shown for all 3 cells). Duplicates of each experimental condition are presented. Data were graphed to indicate the relative binding affinity of PU-H71 to the HSP90 species as expressed in the 3 cell types.

[6] = test system: primary breast tumors; experiment: Ex vivo treatment of primary breast cancer specimens; assay type: cell-based; conditions: 24 h
Experimental: Primary breast cancer specimens. Patient tissue procurement was authorized through institutionally review board-approved bio-specimen protocol#09-121 at Memorial Sloan Kettering Cancer Centre (New York, N.Y.). Specimens were treated for 24 h with the indicated concentrations of PU-H71. Following treatment, slices were fixed in 4% formalin solution for 1 h then stored in 70% ethanol. For tissue analysis, slices were embedded in paraffin, sectioned, slide-mounted, and stained with haematoxylin and eosin. Tissue slides were assessed blindly by a breast cancer pathologist who gauged the apoptosis present in the tumor as well as any effect to normal tissue.
Primary breast tumor protocol. The ex vivo protocol employed on this study is depicted schematically in FIG. 4. Sample preparation and treatment are detailed in Ex vivo treatment response of primary tumors and/or associated metastases for preclinical and clinical development of therapeutics. Corben A D, Uddin M M, Crawford B, Farooq M, Modi S, Gerecitano J, Chiosis G, Alpaugh M L. J Vis Exp. 2014 Oct 2; (92):e52157.

[7] = test system: primary acute myeloid leukemias; experiment: Ex vivo treatment of primary acute myeloid leukemia samples; assay type: cell-based
Experimental: Primary acute myeloid leukemia. Cryopreserved primary AML samples were obtained with informed consent and Weill Cornell Medical College institutional review board approval, and from the University of Pennsylvania Stem Cell & Xenograft Core Facility.
Epichaperome abundance determined by the PU-FITC flow cytometry assay. Cells were treated with 1 μM PU-H71-FITC. At 4 h post treatment, cells were washed twice with FACS buffer (PBS-0.5% FBS). To measure PU-H71-FITC binding in live cells, cells were stained with 7-AAD in FACS buffer at room temperature for 10 min, and analyzed by using an BD-LSR-II or BD-Canto cytometry (BD Biosciences). Cell viability was determined using Annexin-V staining. At 48 h post 1 μM PUH71 treatment, cells were stained with Annexin-V BD Horizon-V450 (BD Biosciences) and 7-AAD in Annexin-V buffer, and subjected to flow cytometry to measure viability determined by AnnexinV/7AAD double negative gates.

[8] = test system: BT20 triple negative breast cancer cells; experiment: Incucyte kinetic growth assay; assay type: cell-based; conditions: for effect on cell confluency, agent alone: 2 μM paclitaxel or 5 μM PU-H71; for remaining live cells and regrowth after removal of agents: between 130 h and approximately 230 h
Experimental: MDA-MD-231 and BT20 triple negative breast cancer cells were seeded in tissue culture treated dishes. Once confluent to approximately 50% of the vessel surface area, the cells were treated with medium containing 2 μM paclitaxel, 5 μM PU-H71, vehicle (DMSO), or a combination of 2 μM paclitaxel and 5 μM PU-H71 (together or sequential). Cells were grown in these conditions in an Essen IncuCyte housed in a standard cell culture incubator. Nine images per condition were collected every 2 hours for a total of 316 hours. After 24 hours under the aforementioned treatment conditions, paclitaxel treated cells were treated with medium containing 5 μM PU-H71 or the control vehicle, PU-H71 treated cells were treated with medium containing 2 μM paclitaxel or control vehicle, and the cells treated with vehicle and the combination of PU-H71 with paclitaxel were treated with medium containing control vehicle. All secondary drug additions were added to existing medium containing the original treatment. The existing medium was additionally diluted twice more with medium containing the control vehicle; each dilution occurring 24 hours after the previous. After 96 hours in culture, the medium was aspirated from each well and replaced with cell-appropriate medium with no pharmacological agents. As stated above, cells were monitored for a total of 316 hours (i.e., […] after complete removal of pharmacological agents).

[9] = Safety and body weight monitoring in tumor-bearing mice; assay type: in vivo
Experimental: Pre-formulated Abraxane® (5 mg/ml) was used.
Five mice were administered the vehicle control.

[10] = test system: triple-negative breast cancer mouse models; conditions: pre-clinical; cited from earlier work
[11] = test system: epichaperome; experiment: Induction of epichaperome, native gel of HSP90 complexes in treated cancer cells; assay type: cell-based; conditions: cells pretreated with paclitaxel for 1 h then drug washed off
Experimental: Cells were cultured using the procedure described in Example 1. The proteotoxic stressor (e.g., paclitaxel or bortezomib) was added for 6 hours and then the cells were lysed. The homogenate was applied for separation on a gel under native conditions.
For the wash off studies (FIG. 8d), cells were cultured and then treated with paclitaxel (referred to as PAC in figure) for 1-2 hours to mimic in vivo conditions. The paclitaxel was then washed off to determine how long the epichaperome is maintained in vitro.

## CO[C@H]1/C=C\C=C(/C)C(=O)NC2=CC(=O)C(NCCN(C)C)=C(C[C@@H](C)C[C@H](OC)[C@H](O)[C@@H](C)/C=C(\C)[C@@H]1OC(N)=O)C2=O [17-DMAG]
[1]
  clinical response: elicited responses

## COc1cccc2c1C(=O)c1c(O)c3c(c(O)c1C2=O)C[C@@](O)(C(=O)CO)C[C@@H]3O[C@H]1C[C@H](N)[C@H](O)[C@H](C)O1 [DOX, Doxorubicin]
[2]; 500 nM PU-H71 added sequentially 24 h after DOX, viability 24 h later
  IC50: 75 nM
[2]; DOX alone, DOX 24 h, viability measured 24 h later
  IC50: 400 nM
[3]; 24 h exposure to doses of DOX below the IC50
  effect on cell cycle: loss of S-phase fraction and accumulation in G2/M

## CCNC(=O)c1noc(-c2cc(C(C)C)c(O)cc2O)c1-c1ccc(CN2CCOCC2)cc1 [NVP-AUY-922]
[4]; 48 h
  apoptotic sensitivity, type 1 tumors: effectively killed
  apoptotic sensitivity, type 2 tumors: refractory

## CC(C)NCCCn1c(Sc2cc3c(cc2I)OCO3)nc2c(N)ncnc21 [PU-H71, 8-(6-Iodo-benzo[1,3]dioxol-5-ylsulfanyl)-9-(3-isopropylamino-propyl)-9H-purin-6-ylamine]
[3]; 24 h exposure to 1 μM PU-H71
  effect on cell cycle: G1/S arrest
[5]; epichaperome / stress HSP90 vs housekeeping, normal cell HSP90
  relative binding affinity for HSP90 species: higher affinity for the stress HSP90 species; also recorded: higher affinity and selectivity
[5]; increasing amounts of PU-H71 attached to a solid support
  amount of epichaperome in the lysates: dose-dependent reduction
[4]; cells enriched in the epichaperome vs cells with lower levels, 1 μM, 48 h
  cell death: more likely to die
[4]; cells with AHA-1 levels reduced by siRNA, 24 h
  sensitivity to killing: less amenable to killing
[6]
  apoptosis / killing of tumors expressing stable multimeric epichaperome forms: most effectively killed; also recorded: readily underwent apoptosis
  sensitivity of adjacent benign tissue: insensitive
  sensitivity of tumors not enriched in the epichaperome (type 2): mostly unaffected; also recorded: far less sensitive
[7]
  sensitivity of non-malignant lymphocytes in the AML samples: insensitive
  sensitivity of type 2 tumors: mostly unaffected
[7]; n=40
  killing of leukemias expressing stable multimeric epichaperome forms: most effectively killed
[8]
  effect on cell confluency, agent alone: cytotoxic effect
  remaining live cells and regrowth after removal of agents: a few live cells and these cells start to regrow
[9]; Example 13: NCI-H1975, HCC1806 or MDA-MB-231 bearing mice, ip once a week, PU-H71 75 mg/kg, Abraxane 30 mg/kg
  adverse effects: No adverse effects were observed
[9]; Example 14: MiaPaca2 bearing mice, Abraxane 30 mpk iv or ip 1x wk, PU-H71 75 mpk ip 1x or 2x wk, 40-day treatment
  adverse effects: No adverse effects were observed
[9]; Example 15: HCC1806 bearing mice, Abraxane 30 mpk iv 1x wk, PU-H71 75 mpk ip 1x or 2x wk, 40-day treatment
  adverse effects: No adverse effects were observed
[10]
  single-agent anti-tumor effect: most potent targeted single-agent anti-tumor effect yet reported

## CC1(C)CC(=O)c2c(C(F)(F)F)nn(-c3ccc(C(N)=O)c(N[C@H]4CC[C@H](O)CC4)c3)c2C1 [SNX2112]
[4]; 48 h
  apoptotic sensitivity, type 1 tumors: effectively killed
  apoptotic sensitivity, type 2 tumors: refractory

## CC(=O)O[C@H]1C(=O)[C@@]2(C)[C@H]([C@H](OC(=O)c3ccccc3)[C@]3(O)C[C@H](OC(=O)[C@H](O)[C@@H](NC(=O)c4ccccc4)c4ccccc4)C(C)=C1C3(C)C)[C@]1(OC(C)=O)CO[C@@H]1C[C@@H]2O [paclitaxel, reference compound]
[11]
  time of decrease of epichaperome to endogenous levels: ≤ 24 h
  time of peak epichaperome levels: 5 to 7 h
[8]
  effect on cell confluency, agent alone: cytotoxic effect
  remaining live cells and regrowth after removal of agents: a few live cells and these cells start to regrow
